According to patent US12478638B2, “Polymers, compositions and methods for treating hyperuricemia” (WATERSTONE PHARMACEUTICALS (WUHAN) CO., LTD., priority 2021, dated 2025):

System: rat model of hyperuricemia induced by adenine (100 mg/kg)+ethambutol (250 mg/kg)
Experiment: Rat model of hyperuricemia induced by adenine + ethambutol; serum UA, CREA, UREA
Type: in vivo
Method: 40 rats were randomly divided into 5 groups with 8 rats in each group. The groups were as follows: Blank Group (Vehicle, ig); Model Group (Vehicle, ig); Positive control group (Allopurinol, 10 mg/kg, ig); Compound 1 group (Sevelamer carbonate, 250 mg/kg, ig); Compound 2 group (PAA polymer, 50 mg/kg, ig). Except for Blank group, rats in other groups were modeled according to the chronic modeling method. The modeling method was as follows: rats were given Adenine (100 mg/kg)+Ethambutol (250 mg/kg) by gavage, once a day, for 21 days. Animals in blank group and model group were given equal volume of normal saline by gavage. Animals in positive control group were given 10 mg/kg Alloalcohol by gavage, once in the first week, once in the second week, once a day for 3 days before sampling in the third week. Animals in each group were given intragastric administration once a day for 14 consecutive days from the 8th day of modeling. Blood samples were taken at Day 21 after modeling, and serum samples were separated and stored at −80[…] for biochemical detection.
After 21 days of modeling (14 days of drug treatment), blood samples were taken and serum separation was performed to detect three renal functions (UA, CREA and UREA) (See Table 1 and FIGS. 1a to 1c). Compound 1 is Sevelamer carbonate and Compound 2 is a polyallylamine-based copolymer having a general structure of formula (4) as described herein.

[1] = after 21 days of modeling, adenine + ethambutol model
[2] = serum, after 21 days of modeling (14 days of administration), ig, Allopurinol 10 mg/kg, Compound 1 250 mg/kg, Compound 2 50 mg/kg

Q: For `Oc1ncnc2[nH]ncc12` [Allopurinol], which “level of CREA compared with the model group (in words)” value [1] is on record?
A: significantly reduced

Q: What about the “level of UA compared with the model group (in words)” value [1] of the same compound?
A: significantly reduced

Q: What about the “level of UREA compared with the model group (in words)” value [1] of the same compound?
A: significantly reduced

Q: What about the CREA [2] of the same compound?
A: 54.73 ± 4.75 ^ μmol/L

Q: And the UA [2]?
A: 12.88 ± 6.01 µmol/L

Q: And the UREA [2]?
A: 5.82 ± 1.10 mmol/L
